Literature values, collected in US5925665A, “Imidazoline compounds” (Adir Et Compagnie, priority 1996, dated 1999).

Test system: mice
Settings: general statement on reference products

Row | Structure (SMILES) | duration of immobility, known antidepressants
1 | CNCCCN1c2ccccc2CCc2ccccc21 [desipramine] | decrease this duration of immobility
2 | CN(C)CCCN1c2ccccc2CCc2ccccc21 [imipramine] | decrease this duration of immobility
